US20080119534A1, “Benzimidazole Derivatives as Therapeutic Agents” (Trans Tech Pharma, Inc, priority 2001, published 2008)
Where a name gives a salt, the structure may show the parent alone.

Assays:
sRAGE (ligand S-100b) = target: T1, sRAGE (ligand S-100b) (Homo sapiens, UniProt Q15109); assay: ELISA assay: inhibition of sRAGE binding to plate-bound S100b; conditions: sRAGE binding to immobilised S100b; concentration at which 50% signal has been inhibited
T1 construct: extracellular domain can be isolated by proteolysis of RAGE to generate soluble RAGE (sRAGE) comprised of the V and C domains
T1 sequence (Q15109 23-342 limits assumed): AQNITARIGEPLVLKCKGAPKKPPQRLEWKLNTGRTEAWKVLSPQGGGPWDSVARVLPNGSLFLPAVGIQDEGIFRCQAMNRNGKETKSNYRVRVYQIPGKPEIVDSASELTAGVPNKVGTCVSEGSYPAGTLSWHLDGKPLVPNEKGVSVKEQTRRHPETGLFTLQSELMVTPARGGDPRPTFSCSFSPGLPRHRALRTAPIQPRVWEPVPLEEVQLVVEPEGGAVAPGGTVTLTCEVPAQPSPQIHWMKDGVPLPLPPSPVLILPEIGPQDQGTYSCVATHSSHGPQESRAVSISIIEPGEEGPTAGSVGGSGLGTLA
Description: (§1) S100b, β-amyloid and CML (500 ng/100 μL/well) in 100 mM sodium bicarbonate/sodium carbonate buffer (pH 9.8) is loaded onto the wells of a NUNC Maxisorp flat bottom 96-well microtitre plate. The plate is incubated at 4° C. overnight. The wells are aspirated and treated with 50 mM imidazole buffer saline (pH 7.2) (with 1 mM CaCl2/MgCl2) containing 1% bovine serum albumin (BSA) (300 μL/well) for two h at 37° C.
(§2) Test compounds are dissolved in nanopure water (concentration: 10-100 μM). DMSO may be used as co-solvent. 25 μL of test compound solution in 2% DMSO is added, along with 75 μL sRAGE (4.0×10^−4 mg/mL FAC) to each well and samples are incubated for 1 h at 37° C. The wells are washed 3 times with 155 mM NaCl pH 7.2 buffer saline and are soaked 10 seconds between each wash.
(§3) Non-radioactive binding is performed by adding:
(§4) 10 μL Biotinylated goat F(ab′)2 Anti-mouse IgG. (8.0×10^−4 mg/mL, FAC)
(§5) 10 μL Alkaline phosphatase Streptavidin (3×10^−3 mg/mL FAC)
(§6) 10 μL Polyclonal antibody for sRAGE (FAC 6.0×10^−3 mg/mL)
(§7) to 5 mL 50 mM imidazole buffer saline (pH 7.2) containing 0.2% bovine serum albumin and 1 mM CaCl2. The mixture is incubated for 30 minutes at 37° C. 100 μL complex is added to each well and incubation is allowed to proceed at rt for 1 h. Wells are washed 3 times with wash buffer and soaked 10 s between each wash. 100 μL 1 mg/mL (pNPP) in 1 M diethanolamine (pH adjusted to 9.8 with HCl) is added. Color is allowed to develop in the dark for 1 to 2 h at rt. The reaction is quenched with 10 μL of stop solution (0.5 N NaOH in 50% ethanol) and the absorbance is measured spectrophotometrically with a microplate reader at 405 nm.

[1] = target: T2, sRAGE (ligand Carboxymethyl Lysine (CML)) (Homo sapiens, UniProt Q15109); assay: ELISA assay: inhibition of sRAGE binding to plate-bound CML; conditions: sRAGE binding to immobilised CML; concentration at which 50% signal has been inhibited
T2 construct: extracellular domain can be isolated by proteolysis of RAGE to generate soluble RAGE (sRAGE) comprised of the V and C domains
T2 sequence (Q15109 23-342 limits assumed): as above
Description: as §1, §2, §3, §4, §5, §6, §7

sRAGE (ligand Amyloid-β) = target: T3, sRAGE (ligand Amyloid-β) (Homo sapiens, UniProt Q15109); assay: ELISA assay: inhibition of sRAGE binding to plate-bound β-amyloid; conditions: sRAGE binding to immobilised β-amyloid; concentration at which 50% signal has been inhibited
T3 construct: extracellular domain can be isolated by proteolysis of RAGE to generate soluble RAGE (sRAGE) comprised of the V and C domains
T3 sequence (Q15109 23-342 limits assumed): as above
Description: as §1, §2, §3, §4, §5, §6, §7

Row | Structure (SMILES) | IC50 (sRAGE (ligand S-100b)) [µM] | IC50 [1] [µM] | IC50 (sRAGE (ligand Amyloid-β)) [µM]
1 | CCCn1c([C@H](N)Cc2ccc(OCc3ccccc3)cc2)nc2ccc(OCCCN(CC)CC)cc21 [Example 16, 2-[(1R)-2-(4-Benzyloxyphenyl)-1-amino-1-ethyl]-3-propyl-5-(3-diethylamino-1-propoxy)benzimidazole] | 5 to 10 | 10 to 20 | 10 to 20
2 | CCN(CC)CCCOc1ccc2nc([C@@H](Cc3ccc(OCc4ccccc4)cc3)NC(=O)OC(C)(C)C)n(CC)c2c1 [Example 11, 2-[(1R)-2-(4-Benzyloxyphenyl)-1-(tert-butoxycarbonylamino)-1-ethyl]-3-ethyl-5-(3-diethylamino-1-propoxy)benzimidazole] | 1 to 5 | 1 to 5 | 1 to 5
3 | CCCCn1c([C@H](N)Cc2ccc(OCc3ccccc3)cc2)nc2cc(OCCCN(CC)CC)ccc21 [Example 4, 2-[(1R)-2-(4-Benzyloxyphenyl)-1-amino-1-ethyl]-3-butyl-6-(3-diethylamino-1-propoxy)benzimidazole] | 1 to 5 | 1 to 5 | 1 to 5
4 | CCCCn1c([C@@H](Cc2ccc(OCCc3ccc(Cl)cc3)cc2)NC(=O)OC(C)(C)C)nc2ccc(OCCCN(CC)CC)cc21 [Example 9] | 0.5 to 1 | 0.5 to 1 | 0.5 to 1
5 | CCCn1c([C@@H](Cc2ccc(OCc3ccccc3)cc2)NC(=O)OC(C)(C)C)nc2ccc(OCCCN(CC)CC)cc21 [Example 15, 2-[(1R)-2-(4-Benzyloxyphenyl)-1-(tert-butoxycarbonylamino)-1-ethyl]-3-propyl-5-(3-diethylamino-1-propoxy)benzimidazole] | 5 to 10 | 5 to 10 | 5 to 10
6 | CCN(CC)CCCOc1ccc2[nH]c([C@@H](Cc3ccc(OCc4ccccc4)cc3)NC(=O)OC(C)(C)C)nc2c1 [Example 5, 2-[(1R)-2-(4-Benzyloxyphenyl)-1-tert-butoxycarbonylamino-1-ethyl]-6-(3-diethylamino-1-propoxy)benzimidazole] | 10 to 20 | 5 to 10 | –
7 | CCN(CC)CCCOc1ccc2nc([C@H](N)Cc3ccc(OCc4ccccc4)cc3)n(Cc3ccccc3)c2c1 [Example 14, 2-[(1R)-2-(4-Benzyloxyphenyl)-1-amino-1-ethyl]-3-benzyl-5-(3-diethylamino-1-propoxy)benzimidazole] | 5 to 10 | 5 to 10 | 10 to 20
8 | CCCCn1c([C@@H](Cc2ccc(OCc3ccccc3)cc2)NC(=O)OC(C)(C)C)nc2cc(OCCCN(CC)CC)ccc21 [Example 3, 2-[(1R)-2-(4-Benzyloxyphenyl)-1-tert-butoxycarbonylamino-1-ethyl]-3-butyl-6-(3-diethylamino-1-propoxy)benzimidazole] | 1 to 5 | 1 to 5 | 1 to 5
9 | CCCCn1c(C(Cc2cccc(OCc3ccccc3)c2)NC(=O)OC(C)(C)C)nc2ccc(OCCCN(CC)CC)cc21 (centres unmarked) [Example 7, 2-[2-(3-Benzyloxyphenyl)-1-(tert-butoxycarbonylamino)-1-ethyl]-3-butyl-5-(3-diethylamino-1-propoxy)benzimidazole] | 1 to 5 | 1 to 5 | 1 to 5
10 | CCN(CC)CCCOc1ccc2nc([C@@H](Cc3ccc(OCc4ccccc4)cc3)NC(=O)OC(C)(C)C)n(CCCN(CC)CC)c2c1 [Example 10, 2-[(1R)-2-(4-Benzyloxyphenyl)-1-(tert-butoxycarbonylamino)-1-ethyl]-3-(3-diethylamino-1-propyl)-5-(3-diethylamino-1-propoxy)benzimidazole] | 1 to 5 | 1 to 5 | 5 to 10
11 | CCCCn1c([C@H](N)Cc2ccc(OCc3ccccc3)cc2)nc2ccc(OCCCN(CC)CC)cc21 [Example 2, 2-[(1R)-2-(4-Benzyloxyphenyl)-1-amino-1-ethyl]-3-butyl-5-(3-diethylamino-1-propoxy)benzimidazoleTrihydrochloride] | 1 to 5 | 1 to 5 | 1 to 5
12 | CCCCn1c([C@@H](Cc2ccc(OCC)cc2)NC(=O)OC(C)(C)C)nc2ccc(OCCCN(CC)CC)cc21 [Example 8, 2-[(1R)-2-(4-Ethoxyphenyl)-1-(tert-butoxycarbonylamino)-1-ethyl]-3-butyl-5-(3-diethylamino-1-propoxy)benzimidazole] | 5 to 10 | 1 to 5 | 5 to 10
13 | CCN(CC)CCCOc1ccc2nc([C@@H](Cc3ccc(OCc4ccccc4)cc3)NC(=O)OC(C)(C)C)n(Cc3ccccc3)c2c1 [Example 13, 2-[(1R)-2-(4-Benzyloxyphenyl)-1-(tert-butoxycarbonylamino)-1-ethyl]-3-benzyl-5-(3-diethylamino-1-propoxy)benzimidazole] | 5 to 10 | 5 to 10 | 5 to 10
14 | CCN(CC)CCCOc1ccc2nc([C@H](N)Cc3ccc(OCc4ccccc4)cc3)n(CCCN(CC)CC)c2c1 [Example 12, 2-[(1R)-2-(4-Benzyloxyphenyl)-1-amino-1-ethyl]-3-(3-diethylamino-1-propyl)-5-(3-diethylamino-1-propoxy)benzimidazole] | 1 to 5 | 1 to 5 | 1 to 5
15 | CCN(CC)CCCOc1ccc2[nH]c([C@H](N)Cc3ccc(OCc4ccccc4)cc3)nc2c1 [Example 6, 2-[(1R)-2-(4-Benzyloxyphenyl)-1-amino-1-ethyl]-6-(3-diethylamino-1-propoxy)benzimidazole] | 5 to 10 | 1 to 5 | 5 to 10
16 | CCCCn1c([C@@H](Cc2ccc(OCc3ccccc3)cc2)NC(=O)OC(C)(C)C)nc2ccc(OCCCN(CC)CC)cc21 [Example 1, 2-[(1R)-2-(4-Benzyloxyphenyl)-1-tert-butoxycarbonylamino-1-ethyl]-3-butyl-5-(3-diethylamino-1-propoxy)benzimidazole] | 1 to 5 | 0.5 to 1 | 1 to 5
